Results as given in the supplement of paper PMC11208160.

Experiment: recombinant UMI read abundance after kanamycin selection (control-corrected) (log10(CPM+1)); higher = more efficient recombination; extreme values may be limits of the assay; sequences stand for … in AGTGCAGAGAAAATCGGCCAGTTTTCTCTGCCTGCAGTCCGCATGCCGTGGGACCCCTTGGGTTCTAACCTGTTGCCTAGATTTATGCAGCGGACTGCCTTTCTCCCAAAGTGATAAACCGG…AGGTTGGTTTCACT; site = the 11-nt donor
Summary of the method: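 Reported values are log10(CPM+1) from a pooled Escherichia coli screen of donor and donor-binding-loop pairs for the IS621 bridge recombinase. Selection used IPTG (0.07 mM) plus kanamycin, against unselected plating, each in two replicates. Recombinant UMIs were amplified across the donor–target junction, sequenced, converted to CPM, averaged over replicates and scaled by control-derived factors.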
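Also: IS621 bridge recombinase in Escherichia coli cells against a fixed T5 target plasmid.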

| Sequence | recombinant UMI read abundance (log10) |
| --- | --- |
| TGGCCGGCATGGACCGGTTTTCCCGGTAATCCGTATTTGGA (site TGGCCGGCTGC) | 0 |
| TGGCCGGCATGGACCGGTTTTCCCGGTAATCCGTATTTGGA (site TGGCCGGCTTC) | 0.0151 |
| TGGCCGGCATGGACCGGTTTTCCCGGTAATCCGTATTTGGG (site TGGCCGGCTAC) | 0.0282 |
| TGGCCGGCATGGACCGGTTTTCCCGGTAATCCGTATTTGGG (site TGGCCGGCTCC) | 0.059 |
| TGGCCGGCATGGACCGGTTTTCCCGGTAATCCGTATTTGGG (site TGGCCGGCTGC) | 0 |
| TGGCCGGCATGGACCGGTTTTCCCGGTAATCCGTATTTGGG (site TGGCCGGCTTC) | 0.00405 |
| TGGCCGGCATGGACCGGTTTTCCCGGTAATCCGTATTTGTC (site TGGCCGGCTGA) | 0.815 |
| TGGCCGGCATGGACCGGTTTTCCCGGTAATCCGTATTTGTC (site TGGCCGGCTGC) | 0 |
| TGGCCGGCATGGACCGGTTTTCCCGGTAATCCGTATTTGTC (site TGGCCGGCTGG) | 0 |
| TGGCCGGCATGGACCGGTTTTCCCGGTAATCCGTATTTGTC (site TGGCCGGCTGT) | 0 |
| TGGCGGGCATGGACCGGTTTTCCCGGTAATCCGTATTTGGC (site TGGCAGGCTGC) | 1.38 |
| TGGCGGGCATGGACCGGTTTTCCCGGTAATCCGTATTTGGC (site TGGCCGGCTGC) | 0.00581 |
| TGGCGGGCATGGACCGGTTTTCCCGGTAATCCGTATTTGGC (site TGGCGGGCTGC) | 1.79 |
| TGGCGGGCATGGACCGGTTTTCCCGGTAATCCGTATTTGGC (site TGGCTGGCTGC) | 1.01 |
| TGGCGGGCATGGACCGGTTTTCCCGGTAATCCGTATTTGTT (site TGGCGGGCTAA) | 0.701 |
| TGGCTCCCATGGACCGGTTTTCCCGGTAATCCGTATTTGGT (site TGGCTCCCTAC) | 0.203 |
| TGGCTGGCATGGACCGGTTTTCCCGGTAATCCGTATTTGGC (site TGGCAGGCTGC) | 0 |
| TGGCTGGCATGGACCGGTTTTCCCGGTAATCCGTATTTGGC (site TGGCCGGCTGC) | 0 |
| TGGCTGGCATGGACCGGTTTTCCCGGTAATCCGTATTTGGC (site TGGCGGGCTGC) | 0 |
| TGGCTGGCATGGACCGGTTTTCCCGGTAATCCGTATTTGGC (site TGGCTGGCTGC) | 1.33 |
| TGGGCAACATGGACCGGTTTTCCCGGTAATCCGTATTTGTG (site TGGGCAACTCA) | 0.0056 |
| TGGGCACCATGGACCGGTTTTCCCGGTAATCCGTATTTGCA (site AGGGCACCTTG) | 0.00499 |
| TGGGCACCATGGACCGGTTTTCCCGGTAATCCGTATTTGCA (site CGGGCACCTTG) | 0.00478 |
| TGGGCACCATGGACCGGTTTTCCCGGTAATCCGTATTTGCA (site GGGGCACCTTG) | 0 |
| TGGGCACCATGGACCGGTTTTCCCGGTAATCCGTATTTGCA (site TGGGCACCTTG) | 0.00258 |

| Sequence | recombinant UMI read abundance (log10) |
| --- | --- |
| TGGGCGGCATGGACCGGTTTTCCCGGTAATCCGTATTTGAT (site TGGGCGGCTAT) | 1.11 |
| TGGTAAGCATGGACCGGTTTTCCCGGTAATCCGTATTTGGC (site TGGTAAGCTGC) | 2.86 |
| TGGTAATCATGGACCGGTTTTCCCGGTAATCCGTATTTGTG (site TGGTAATCTCA) | 1.65 |
| TGGTCACCATGGACCGGTTTTCCCGGTAATCCGTATTTGTC (site GTACTCACTCC) | 0.00879 |
| TGGTGACCATGGACCGGTTTTCCCGGTAATCCGTATTTGTC (site TGGTGACCTGA) | 0 |
| TGTAAACCATGGACCGGTTTTCCCGGTAATCCGTATTTGAC (site TGTAAACCTGT) | 0 |
| TGTAAACCATGGACCGGTTTTCCCGGTAATCCGTATTTGAC (site TGTACACCTGT) | 0 |
| TGTAAACCATGGACCGGTTTTCCCGGTAATCCGTATTTGAC (site TGTAGACCTGT) | 0 |
| TGTAAACCATGGACCGGTTTTCCCGGTAATCCGTATTTGAC (site TGTATACCTGT) | 0 |
| TGTAAGACATGGACCGGTTTTCCCGGTAATCCGTATTTGGC (site TGTAAGACTGC) | 0 |
| TGTACAACATGGACCGGTTTTCCCGGTAATCCGTATTTGAG (site TGTACAACTCT) | 0.0145 |
| TGTACACCATGGACCGGTTTTCCCGGTAATCCGTATTTGAA (site TGTACACCTAT) | 0.0146 |
| TGTACACCATGGACCGGTTTTCCCGGTAATCCGTATTTGAA (site TGTACACCTCT) | 0.00905 |
| TGTACACCATGGACCGGTTTTCCCGGTAATCCGTATTTGAA (site TGTACACCTGT) | 0 |
| TGTACACCATGGACCGGTTTTCCCGGTAATCCGTATTTGAA (site TGTACACCTTT) | 0.0198 |
| TGTACACCATGGACCGGTTTTCCCGGTAATCCGTATTTGAT (site TGTACACCTAT) | 0.00557 |
| TGTACACCATGGACCGGTTTTCCCGGTAATCCGTATTTGAT (site TGTACACCTCT) | 0 |
| TGTACACCATGGACCGGTTTTCCCGGTAATCCGTATTTGAT (site TGTACACCTGT) | 0 |
| TGTACACCATGGACCGGTTTTCCCGGTAATCCGTATTTGAT (site TGTACACCTTT) | 0.00971 |
| TGTACCCCATGGACCGGTTTTCCCGGTAATCCGTATTTGAC (site TGTACACCTGT) | 0 |
| TGTACCCCATGGACCGGTTTTCCCGGTAATCCGTATTTGAC (site TGTACCCCTGT) | 1.52 |
| TGTACCCCATGGACCGGTTTTCCCGGTAATCCGTATTTGAC (site TGTACGCCTGT) | 0 |
| TGTACCCCATGGACCGGTTTTCCCGGTAATCCGTATTTGAC (site TGTACTCCTGT) | 0.00417 |
| TGTACTCCATGGACCGGTTTTCCCGGTAATCCGTATTTGAC (site TGTACACCTGT) | 0 |
| TGTACTCCATGGACCGGTTTTCCCGGTAATCCGTATTTGAC (site TGTACCCCTGT) | 0.817 |

| Sequence | recombinant UMI read abundance (log10) |
| --- | --- |
| TGTACTCCATGGACCGGTTTTCCCGGTAATCCGTATTTGAC (site TGTACGCCTGT) | 0 |
| TGTACTCCATGGACCGGTTTTCCCGGTAATCCGTATTTGAC (site TGTACTCCTGT) | 0 |
| TGTAGTGCATGGACCGGTTTTCCCGGTAATCCGTATTTGCG (site TGTAGTGCTCG) | 0.963 |
| TGTCCCCCATGGACCGGTTTTCCCGGTAATCCGTATTTGTA (site TGTACCCCTTA) | 0.013 |
| TGTCCCCCATGGACCGGTTTTCCCGGTAATCCGTATTTGTA (site TGTCCCCCTTA) | 0.0699 |
| TGTCCCCCATGGACCGGTTTTCCCGGTAATCCGTATTTGTA (site TGTGCCCCTTA) | 0.0174 |
| TGTCCCCCATGGACCGGTTTTCCCGGTAATCCGTATTTGTA (site TGTTCCCCTTA) | 0.0128 |
| TGTCTAACATGGACCGGTTTTCCCGGTAATCCGTATTTGGC (site TGTCTAACTGC) | 0.011 |
| TGTCTATCATGGACCGGTTTTCCCGGTAATCCGTATTTGAC (site TGTCTATCTGT) | 0 |
| TGTGATACATGGACCGGTTTTCCCGGTAATCCGTATTTGCC (site TGTGATACTGG) | 0 |
| TGTGATTCATGGACCGGTTTTCCCGGTAATCCGTATTTGTG (site TGTGATTCTCA) | 0.304 |
| TGTGCAGCATGGACCGGTTTTCCCGGTAATCCGTATTTGGT (site TGTGCAGCTAC) | 0.0104 |
| TGTGCGTCATGGACCGGTTTTCCCGGTAATCCGTATTTGGT (site TGTGCGTCTAC) | 0.348 |
| TGTGGAGCATGGACCGGTTTTCCCGGTAATCCGTATTTGGC (site TGTGGAGCTGC) | 1.6 |
| TGTGGTACATGGACCGGTTTTCCCGGTAATCCGTATTTGGC (site TGTGGTACTGC) | 0.698 |
| TGTGTAACATGGACCGGTTTTCCCGGTAATCCGTATTTGGG (site TGTGTAACTCC) | 0.0344 |
| TGTGTATCATGGACCGGTTTTCCCGGTAATCCGTATTTGAT (site TGTGTATCTAT) | 0.398 |
| TGTTATACATGGACCGGTTTTCCCGGTAATCCGTATTTGCA (site TGTTATACTTG) | 1.64 |
| TGTTCAGCATGGACCGGTTTTCCCGGTAATCCGTATTTGTA (site TGTTCAGCTTA) | 0.141 |
| TGTTCCACATGGACCGGTTTTCCCGGTAATCCGTATTTGTA (site TGTTCCACTTA) | 0.225 |
| TGTTCCACATGGACCGGTTTTCCCGGTAATCCGTATTTGTA (site TGTTCCCCTTA) | 0.00983 |
| TGTTCCACATGGACCGGTTTTCCCGGTAATCCGTATTTGTA (site TGTTCCGCTTA) | 0.0123 |
| TGTTCCACATGGACCGGTTTTCCCGGTAATCCGTATTTGTA (site TGTTCCTCTTA) | 0.0149 |
| TGTTCCGCATGGACCGGTTTTCCCGGTAATCCGTATTTGGC (site TGTTCCGCTGC) | 0.484 |
| TGTTCCTCATGGACCGGTTTTCCCGGTAATCCGTATTTGTA (site TGTTCCACTTA) | 0.0142 |
